Assay results as given in article PMC6112376, “Comprehensive Analyses and Prioritization of Tox21 10K Chemicals Affecting Mitochondrial Function by in-Depth Mechanistic Studies” (Environmental Health Perspectives, 2018).
Where a name gives a salt, the structure may show the parent alone. Read-outs that look alike come from different tables or passages of the source.

Experiments:
HepG2 cells [1] = conditions: for IC50: read-out: MMP assays IC50 (µM) HepG2
rat primary hepatocytes [2] = system: rat primary hepatocytes
rat primary hepatocytes [3] = assay: MMP assay in rat primary hepatocytes; conditions: for IC50: read-out: MMP assays IC50 (µM) Rat Hepatocytes
HepG2 cells [4] = conditions: cited from earlier work
[5] = read-out: MMP assays IC50 (µM) qHTS-HepG2
[6] = read-out: MMP assays IC50 (µM), qHTS-HepG2
[7] = HepG2 cells, single number from one experiment
[8] = rat hepatocytes, mean ± SD of three experiments

Compound | MMP assays efficacy (%) HepG2 (HepG2 cells [1]) | IC50 (HepG2 cells [1]) [µM] | MMP assays efficacy (%) Rat Hepatocytes (rat primary hepatocytes [2]) | MMP assays IC50 (µM) Rat Hepatocytes (rat primary hepatocytes [3]) | MMP assays efficacy (%) qHTS-HepG2 (HepG2 cells [4]) | IC50 (HepG2 cells [4]; [5]) [µM] | IC50 (HepG2 cells [4]; [6]) [µM] | MMP assays IC50 (µM) HepG2 (HepG2 cells [1]) | MMP assays IC50 (µM) qHTS-HepG2 (HepG2 cells [4]) | IC50 (rat primary hepatocytes [3]) [µM] | MMP assays efficacy (%) HepG2 (HepG2 cells [1]; [7]) [%] | IC50 (HepG2 cells [1]; [7]) [µM] | IC50 (rat primary hepatocytes [3]; [8]) [µM] | IC50 (rat primary hepatocytes [3]; Rattus norvegicus, Hepatocyte) [µM]
CC(C)c1ccc(O)c(C(C)C)c1 [2,4-Diisopropylphenol] | -115% | 35.5 | inactive | inactive | -107±10% | 17.2 ± 1.99 | – | – | – | – | – | – | – | –
CCO[Si](CC(C)C)(OCC)OCC [Triethoxy(2-methylpropyl)silane] | -83% | 35.5 | inactive | inactive | -66±5% | – | 28.9 ± 6.98 | – | – | – | – | – | – | –
C[C@@H]1C/C=C/C=C/C=C/C=C/[C@H](O[C@@H]2O[C@H](C)[C@@H](O)[C@H](N)[C@@H]2O)C[C@@H]2O[C@](O)(C[C@@H](O)C[C@H]3O[C@@H]3/C=C/C(=O)O1)C[C@H](O)[C@H]2C(=O)O [Natamycin] | inactive | – | inactive | inactive | inactive | – | – | inactive | inactive | – | – | – | – | –
O=C(NCc1cccnc1)Nc1ccc([N+](=O)[O-])cc1 [Pyrinuron] | -81% | 28.2 | -108±48% | – | -87±26% | – | 26.3 ± 1.71 | – | – | 25.8 ± 10.1 | – | – | – | –
Nc1cccc(O)c1 [Compound 3-Aminophenol] | inactive | – | inactive | inactive | inactive | – | – | inactive | inactive | – | – | – | – | –
[Ba+2].[Cl-].[Cl-] [Barium chloride] | -46% | 39.8 | inactive | inactive | -68±11% | 16.6 ± 8.5 | – | – | – | – | – | – | – | –
O=c1c(O)c(-c2ccc(O)c(O)c2)oc2cc(O)cc(O)c12 [Quercetin dihydrate] | -96% | 2.95 | -71±22% | – | -98±4% | – | 6.2 ± 2.32 | – | – | 5.83 ± 4.93 | – | – | – | –
C=C(C)C(=O)OCC(O)COc1ccc(C(C)(C)c2ccc(OCC(O)COC(=O)C(=C)C)cc2)cc1 (centres unmarked) [Bisphenol A glycidyl methacrylate] | -118% | 15.8 | -70±50% | – | -121±28% | 12.2 ± 11.9 | – | – | – | 38.1 ± 9.22 | – | – | – | –
O=C1NCN(c2ccccc2)C12CCN(CCCOc1ccc(F)cc1)CC2 [AMI-193] | -75% | 7.74 | -37±21% | – | -73±11% | 5.82 ± 3.05 | – | – | – | 26 ± 12.2 | – | – | – | –
Methyl violet | -100% | 0.44 | -81±20% | – | -121±3% | – | 0.07 ± 0.03 | – | – | 1.73 | – | – | – | –
CC(C)(C)c1ccc(CN2CCN(C(c3ccccc3)c3ccc(Cl)cc3)CC2)cc1.Cl.Cl (centres unmarked) [Buclizine dihydrochloride] | inactive | – | inactive | inactive | -52±10% | 32.2 ± 2.1 | – | inactive | – | – | – | – | – | –
CCCCCCCC[P+](CCCCCCCC)(CCCCCCCC)CCCCCCCC.[Br-] [Tetraoctylphosphonium bromide] | -105% | 0.32 | -90±21% | – | -91±6% | – | 0.18 ± 0.12 | – | – | 6.82 ± 2.23 | – | – | – | –
Cl.Nc1ccc(/N=N/c2ccccc2)c(N)c1 [C.I. Basic orange 2] | – | – | -34±7% | – | -82±19% | 7.53 ± 5.61 | – | – | – | – | -113 | 19.9 | 24.9 ± 21.1 | –
[F][Sn]([c]1ccccc1)([c]1ccccc1)[c]1ccccc1 [Triphenyltin fluoride] | -104% | 1.78 | -81±23% | – | -106±5% | – | 0.47 ± 0.31 | – | – | 6.17 ± 2.51 | – | – | – | –
CN(C)c1ccc(C(=C2C=CC(=[N+](C)C)C=C2)c2ccccc2)cc1.CN(C)c1ccc(C(=C2C=CC(=[N+](C)C)C=C2)c2ccccc2)cc1.O=C(O)C(=O)O.O=C([O-])C(=O)O.O=C([O-])C(=O)O [Malachite green oxalate] | -65% | 27.5 | -44±26% | – | -100±20% | – | 2.1 ± 1.87 | – | – | 8.67 ± 12.3 | – | – | – | –
O=C1NC(=O)c2cccc3cccc1c23 [1H-Benzo[de]isoquinoline-1,3(2H)-dione] | -77% | 14.1 | -43±22% | – | -77±24% | 8.31 ± 3.47 | – | – | – | 5.56 ± 8.92 | – | – | – | –
CC1(C)C(/C=C(\Cl)C(F)(F)F)C1C(=O)OC(C#N)c1cccc(Oc2ccccc2)c1 (centres unmarked) [Cyhalothrin] | inactive | – | -55±25% | – | -73±14% | 33.6 ± 5.79 | – | inactive | – | – | – | – | – | 33.8 ± 9.96
CCN1CCC2(CC1)COc1cc3c(cc12)N(C(=O)c1ccc(-c2ccc(-c4nnc(C)o4)cc2C)cc1)CC3.Cl | -111% | 19.9 | -109±26% | – | -58±10% | 6.09 ± 2.54 | – | – | – | 40.9 ± 16 | – | – | – | –
COC(=O)c1c(C)cc(O)c(C)c1O | – | – | -81±57% | – | – | – | 16 ± 6.62 | – | – | – | -103 | 25.1 | 30.6 ± 28.4 | –
Nc1ccc(-c2ccc(N)c(N)c2)cc1N [3,3',4,4'-Tetraaminobiphenyl tetrahydrochloride] | -82% | 2 | -39±5% | – | -92±8% | 0.34 ± 0.26 | – | – | – | 9.46 ± 4.43 | – | – | – | –
Cc1cccc(C)c1Nc1ncccc1C(=O)O [Metanixin] | -101% | 21.8 | -93±28% | – | -122±21% | – | 26 ± 2.11 | – | – | 21 ± 1.37 | – | – | – | –
Cl.Cl.Nc1ccc(-c2ccc(N)cc2)cc1 [Benzidine dihydrochloride] | -67% | 17.7 | inactive | inactive | inactive | – | – | – | inactive | – | – | – | – | –
[OH-].c1cc[c]([Sn+]([c]2ccccc2)[c]2ccccc2)cc1 [Triphenyltin hydroxide] | -94% | 1.12 | -118±53% | – | -95±9% | – | 0.12 ± 0.03 | – | – | 14.8 ± 5.12 | – | – | – | –
